Like-named read-outs stand apart in the source and are kept apart here.
Tests used:
Mouse [1] = settings: cited from earlier work
[2] = test system: respiratory and cardiocirculatory activity; settings: rabbit; for convulsive phenomena: in vivo, iv
[3] = test system: toxicity of sodium Pentobarbital; test: "Life-saving" effect: influence on the toxicity of sodium Pentobarbital; settings: for PR (ratio between the LD50 of Pentobarbital with and without pre-treatment with the stimulant): mouse, in vivo
[4] = Convulsivant effect on mouse; settings: mouse, in vivo, po
mouse [5] = test: Convulsivant effect on mouse; settings: for stimulant action on the CNS indicated by the ratio LD50/CD50: mouse, in vivo
rat = test: Chronic toxicity in rat
[6] = Stimulating activity on the CNS (analeptic activity, ED50); assay type: in vivo
Mouse [7] = test: Acute toxicity in mouse; settings: in words
Acute toxicity in mouse = settings: mouse, in vivo
[8] = test system: respiratory depression induced by morphine; settings: rabbit
mouse [9] = settings: in vivo
Acute toxicity in rat = test: Acute toxicity in rat; design: species or system rats Sprague-Dauley; settings: in vivo, read-out: LD50 and F.L.
Method: The test has been performed on Swiss mice of the weight of 20-22 g and on rats Sprague-Dauley of the weight of 120-130 g, subdivided in groups comprising 5 male and 5 female animals. The new drugs have been administered to animals hungry since 15-18 hours, both by oral and i.p.route. The LD50 values have been determined according to Litchfield and Wilcoxon (J.Pharmacol.96,99,1949). The results are reported in the following Table 1, in comparison with LD50 value for Dimefline.

[10] = rat, 5 and 10 mg/kg, 5 times/week over 12 weeks

SMILES: COc1ccc2c(=O)c(C)c(-c3ccccc3)oc2c1CN(C)C [Dimefline]
- LD50 and F.L. (Mouse [1]; i.p., Setnikar, J.Pharmacol.128, 176, 1960): 4.8 (4.6-5.0) mg/KG
- LD50 and F.L. (Mouse [1]; in vivo, po): 11.9 (10.3-13.8) mg/KG
- LD50 and L.F. (Mouse [1]; in vivo): 11,9 (10,3-13,8) mg/Kg
- convulsive phenomena [2]: several cases showing convulsive phenomena
- PR (ratio between the LD50 of Pentobarbital with and without pre-treatment with the stimulant) [3]: 1,27
- TD50 [4]: 8.9 mg/kg
- start of the convulsivant effect (mouse [5]; in comparison with PV1, in words): starts at by far lower doses
- stimulant action on the CNS indicated by the ratio LD50/CD50 (mouse [5]): equivalent for the two drugs

SMILES: COc1ccc2c(=O)c(-c3ccccc3)c(-c3ccc(C)cc3)oc2c1CN(C)C [PV1]
- HB (rat; 5 mg/Kg, 12 weeks): 14,88 ± 0,36%
- Hemazies (rat; 5 mg/Kg, 12 weeks): 7,38 ± 0,21 10^6 /mm^3
- Leucocytes (rat; 5 mg/Kg, 12 weeks): 17,04 ± 1,36 10^3 /mm^3
- Leucocytic formula: bas (rat; 5 mg/Kg, 12 weeks): 0
- Leucocytic formula: eosin (rat; 5 mg/Kg, 12 weeks): 0,9
- Leucocytic formula: linf. (rat; 5 mg/Kg, 12 weeks): 77,6
- Leucocytic formula: monoc. (rat; 5 mg/Kg, 12 weeks): 7,9
- Leucocytic formula: neutr. (rat; 5 mg/Kg, 12 weeks): 13,6
- analysis of urine: Hemoglobin (rat; 5 mg/kg): 1(+)
- analysis of urine: Proteins (rat; 5 mg/kg): 6(+)
- analysis of urine: Residue (rat; 5 mg/kg): normal
- relative average weight: Brain (rat; 5 mg/kg): 579,6 ± 24,5 mg/100 g of body weight
- relative average weight: Heart (rat; 5 mg/kg): 289,9 ± 11,2 mg/100 g of body weight
- relative average weight: Liver (rat; 5 mg/kg): 3012 mg/100 g of body weight
- relative average weight: Loins (rat; 5 mg/kg): 658,5 ± 26,4 mg/100 g of body weight
- relative average weight: Spleen (rat; 5 mg/kg): 304,2 ± 16,6 mg/100 g of body weight
- Azotemia (rat; 5 mg/kg, 12 weeks): 15,7 ± 0,5 mg/100 ml
- Glycemia (rat; 5 mg/kg, 12 weeks): 87,8 ± 3,9 mg/100 ml
- SGOT (rat; 5 mg/kg, 12 weeks): 12,9 ± 0,8 mU/ml
- SGPT (rat; 5 mg/kg, 12 weeks): 12,1 ± 0,6 mU/ml
- HB (rat; 10 mg/Kg, 12 weeks): 15,02 ± 0,42%
- Hemazies (rat; 10 mg/Kg, 12 weeks): 7,40 ± 0,20 10^6 /mm^3
- Leucocytes (rat; 10 mg/Kg, 12 weeks): 16,70 ± 1,70 10^3 /mm^3
- Leucocytic formula: bas (rat; 10 mg/Kg, 12 weeks): 0
- Leucocytic formula: eosin (rat; 10 mg/Kg, 12 weeks): 0,7
- Leucocytic formula: linf. (rat; 10 mg/Kg, 12 weeks): 77,8
- Leucocytic formula: monoc. (rat; 10 mg/Kg, 12 weeks): 9,4
- Leucocytic formula: neutr. (rat; 10 mg/Kg, 12 weeks): 12,1
- analysis of urine: Hemoglobin (rat; 10 mg/kg): 2(+)
- analysis of urine: Residue (rat; 10 mg/kg): normal
- relative average weight: Brain (rat; 10 mg/kg): 583,7 ± 19,8 mg/100 g of body weight
- relative average weight: Heart (rat; 10 mg/kg): 288,8 ± 11,3 mg/100 g of body weight
- relative average weight: Liver (rat; 10 mg/kg): 3036,5 mg/100 g of body weight
- relative average weight: Loins (rat; 10 mg/kg): 672,8 ± 29,6 mg/100 g of body weight
- relative average weight: Spleen (rat; 10 mg/kg): 303,7 ± 13,5 mg/100 g of body weight
- Azotemia (rat; 10 mg/kg, 12 weeks): 32,5 ± 1,6 mg/100 ml
- Glycemia (rat; 10 mg/kg, 12 weeks): 80,3 ± 4,1 mg/100 ml
- SGOT (rat; 10 mg/kg, 12 weeks): 12,3 ± 0,5 mU/ml
- SGPT (rat; 10 mg/kg, 12 weeks): 10,4 ± 0,7 mU/ml
- deaths (rat; [10]): No death has been registered
- increase in the weight of the treated animals (rat; [10]): identical to that of the controls
- intolerance of the drug (rat; [10]): No intolerance of the drug has been noted
- autopsy (rat; rat, 5 and 10 mg/kg, 12 weeks): no lesion of the different organs
- hematologic and hematochemical tests (rat; rat, 5 and 10 mg/kg, 12 weeks, vs controls, in words): do not show significant difference between controls and treated animals
- ED50 [6]: 5 mg/kg
- acute toxicity compared with Dimefline (Mouse [7]): by far less toxic than Dimefline
- LD50 (Acute toxicity in mouse): 80 mg/kg
- LD50 (Acute toxicity in mouse; ip): 28.2 mg/kg
- LD50 (Acute toxicity in mouse; po): 80 mg/kg
- respiratory amplitude and frequency ([2]; i.v. 1.25 - 2.5-5 mg/kg, without morphine): constantly reduced the gradual diminution of the respiratory amplitude and frequency
- convulsive phenomena [2]: no convulsive phenomenon was detected
- antagonism of the intermittent breath of Sheyne-Stoches ([8]; i.v. 1.25 mg/kg, after morphine 10 mg/kg): uneffective
- reinstatement of normal respiratory amplitude and frequency ([8]; i.v. 2.5 mg/kg, after morphine 10 mg/kg, repeated administration needed): effective to reinstate normal values of respiratory amplitude and frequency, but needed repeated administration
- reinstatement of normal respiratory amplitude and frequency ([8]; i.v. 5 mg/kg, after morphine 10 mg/kg, only one administration): quite effective
- cardiocirculatory conditions ([8]; in vivo, iv): not remarkably affected
- reduction of the toxicity of Pentobarbital ([3]; equi-toxic doses, vs Dimefline, in words): reduces the toxicity of Pentobarbital much more than Dimefline
- PR (ratio between the LD50 of Pentobarbital with and without pre-treatment with the stimulant) [3]: 1,39
- TD50 [4]: 58 mg/kg
- stimulant action on the CNS indicated by the ratio LD50/CD50 (mouse [5]): equivalent for the two drugs
- R(LD50 /CD50) (mouse [9]): 1,38
- LD50 (Acute toxicity in rat; ip): 22.5 mg/kg
- LD50 (Acute toxicity in rat; po, os): 76.4 mg/kg

— US4079139A, “Flavone derivatives” (priority 1974, dated 1978)
